From PMC12901191, “Detection and pharmacokinetics of licochalcone A in brains of neuroinflammatory mouse model” (Naunyn-Schmiedeberg's Archives of Pharmacology, 2025)
Read-outs that look alike come from different tables or passages of the source.

Key:
[1] = Pharmacokinetic study of LCA in mice brain tissues (non-compartmental analysis); assay type: in vivo, Swiss albino mice
Procedure: (§1) Mice were sacrificed by cervical dislocation, and their brains were collected and separated from the cerebellum. The collected brains were washed with ice-cold Tris buffer (5 mM, pH 7.4) and then homogenized with 1 mL of the Tris buffer/100 mg brain using the 5-mL Dounce homogenizer. The brain homogenates were stored at − 80 °C till analysis. […] The homogenization included the entire brain components, allowing for a comprehensive analysis of LCA in the samples.
Brain homogenates were removed from the − 80 °C freezer and allowed to come to room temperature. Brain matrix extraction was performed as described before (Paulke et al. [2006]) with slight modifications. Briefly, in tightly sealed polypropylene tubes, 300 µL brain homogenate was mixed with 300 µL methanol, 200 µL tert-butyl hydroquinone (TBHQ) solution (5 mg/mL), and 200 µL HCl (1 M). The reaction mixture was vortexed for 1 min and inserted into a heat block at 90 °C for 2 h. The reaction tubes were then centrifuged at 3700 × g for 10 min, and the supernatant was collected in micro-centrifuge tubes and transferred for derivatization.
The chosen method for derivatization in this study involves silylation, utilizing the N, O-Bis(trimethylsilyl) trifluoroacetamide (BSTFA) as a silylating agent. The derivatization reaction is employed to produce silyl derivatives of the analyte, which are more volatile and more thermally stable. The reaction replaces active hydrogens with trimethylsilyl groups (TMS) through SN2 nucleophilic attack (Halket and Zaikin [2003]). Extracted samples or reference standards were first placed in a vacuum concentrator for 2 h before performing the derivatization reaction to ensure complete dryness. Dried sample residues were derivatized by adding 150 µL of the mixture of BSTFA and pyridine in a (4:1) ratio into the samples’ tubes. The derivatization reaction was performed at 60 °C for 1 h (Fig. 2). The tubes were centrifuged at 21,460 × g for 1 min and transferred to glass vials suitable for GC–MS/MS analysis.
For pharmacokinetic analysis, 30 adult male Swiss albino mice were randomly divided into six groups (n = 5 for each group), according to sample collection times. […] Mice were sacrificed, and brain tissues were collected after 0, 2, 4, 6, 8, and 24 h post-dosing and were then kept at − 80 °C before sample treatment. Collected brain samples were then extracted and derivatized as described previously and then further analyzed using the GC–MS/MS in MRM mode using the established MRM transitions. Pharmacokinetic parameters were determined by non-compartmental analysis using PK solutions software, version 2.0 (Summit Research Services).

[2] = system: LPS-neuroinflammatory mouse model; assay: Novel object recognition (NOR) test in LPS-neuroinflammatory mouse model; assay type: in vivo, Swiss albino mice; settings: drug control group (saline + LCA 20 mg/kg ip) vs control group
Text: (§2) A neuroinflammatory mouse model induced by LPS was developed as described before by Lee et al. ([2008a]). This neuroinflammatory model was well-characterized previously by our research group, showing memory impairment, neuroinflammation, and neurodegenerative changes in the cortex and hippocampus (Zakaria et al. [2016]; Abdel-Kader et al. [2021]; Samir et al. [2023]; Wagdy et al. [2023]).
(§3) Mice were divided randomly into four groups as follows: (i) control group, mice received vehicle injections (saline followed by DMSO/corn-oil vehicle); (ii) LPS onlygroup, LPS followed by the DMSO/corn-oil vehicle; (iii) treatment group, LPS followed by LCA; and (iv) drug control group, saline followed by LCA. […] This timing also avoids potential direct pharmacological interaction and is consistent with previous post-LPS treatment protocols (Zakaria et al. [2016]; Badshah et al. [2016]).
(§4) The behavioral assessment was performed 24 h after the final dose (day 8), after which all mice were sacrificed, and their brains were collected for subsequent bioanalysis (Fig. 1).
A total number of 40 mice were randomly assigned into four groups (n = 10 per group) before performing the behavioral experiments and kept blinded throughout the study until all data had been collected. The experimental unit in these assays was a single animal, and the primary outcomes were memory and cognitive functions. […]

[3] = parameters: method as in Weng et al. [2019]; settings: ref Weng et al. [2019], cited from earlier work
[4] = Permeability of LCA across BBB: GC-MS/MS detection and quantification in brain tissue after the treatment regimen; assay type: in vivo, Swiss albino mice; settings: treated (LPS + LCA) and drug control groups; peak at RT 11.22 min
Text: as §3, §4, §1
Brain homogenates were removed from the − 80 °C freezer and allowed to come to room temperature. […]
For both qualitative and quantitative analysis on mice brain samples, the MSD was operated in time-segmented MRM mode for the selected transition ions.

[5] = system: LPS-neuroinflammatory mouse model; assay: Y-maze spontaneous alternation test in LPS-neuroinflammatory mouse model; assay type: in vivo, Swiss albino mice
Procedure: as §2, with “[2023]). […]” for “[2023]).”
The short-term spatial working memory and exploratory activity of the mice were assessed using the Y-maze spontaneous alteration test, according to the working protocol of Arai et al. ([2001]). […] The sequences of animal’s entries in the arms were recorded. For an entry to be counted, the four paws and the tail of the animal have to be inside the arm. […] Working memory was calculated based on the number of spontaneous alternations, which is defined as successive entries into three distinct arms consecutively without any repeated entry to any of the arms. The results were expressed as “spontaneous alternation percentage” using the equation: % spontaneous alternation = [Spontaneous alternations/(Total number of entries − 2)] × 100.

[6] = male, Swiss albino, mouse, brain, ip, 20 mg/kg
[7] = single ip 20 mg/kg LCA after 7 days LPS, brain tissue, mean ± SD, n = 5
[8] = intravenous 5 mg/kg single dose

C=CC(C)(C)c1cc(/C=C/C(=O)c2ccc(O)cc2)c(OC)cc1O [LCA, (2E)−3-[4-Hydroxy-2-methoxy-5-(2-methylbut-3-en-2-yl)phenyl]−1-(4-hydroxyphenyl)prop-2-en-1-one]
Tmax [1, 6]: 4 h
half-life [1, 6]: 17.1 ± 5.98 h
MRT last ([1]; male, Swiss albino, mouse, brain, ip, 20 mg/kg, read-out: MRT0-t): 10.5 ± 0.69 h
Cl/F [1, 7]: 17.90 ± 5.33 (mg/kg)/h
Vz/F [1, 7]: 529.74 ± 139.18 mg/kg
concentration in brain tissue until 8 h post-injection ([1]; single ip 20 mg/kg LCA after 7 days LPS, up to 8 h post-injection): above 15 µg/mg
non-spatial memory (NOR), LCA alone vs control [2]: did not show alteration
Cmax (plasma) [3, 8]: 3173.5 ± 483.0 ng/mL
Tmax (plasma) [3, 8]: 0.0833 h
Cmax (plasma) ([3]; oral 15 mg/kg single dose): 60.7 ± 13.9 ng/mL
Tmax (plasma) ([3]; oral 15 mg/kg single dose): 0.5 h
detection of LCA in brain (passage of BBB) [4]: presence of LCA peak
explorative behavior / spatial short-term memory (spontaneous alternation %, Y-maze) ([5]; LPS + LCA vs LPS group, LCA 20 mg/kg ip days 4-7, LPS 250 µg/kg ip days 1-7, tested day 8, p < 0.01): restored the explorative behavior
spatial short-term memory (Y-maze), LCA alone vs control ([5]; drug control group (saline + LCA 20 mg/kg ip) vs control group): did not show alteration
